Format in all cases: cell-based
For test [1], the system named is U2OS_Bim cells. As to the kind of experiment: Apoptosis inhibition assay (Bim-induced apoptosis, cell viability by ATP level). As to conditions: U2OS_Bim cells. The procedure, abridged:
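Apoptosis was triggered by doxycycline (0.1 μg/mL) induction of Bim, one hour after compound addition to U2OS_Bim cells. Survival was measured after 24 h from cellular ATP (CellTiter-Glo), relative to DMSO, with zVAD at 20 μM as rescue control. Data are duplicate means, some estimated from preliminary results.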

Test [2] concerns U2OS_Bim cells. The test is described as follows: Irreversibility binding assay (cellular wash/no wash assay). The source says: It has been reported that sulfone can serve as a good leaving group in SN2 substitution reactions when linked to electron withdrawing groups. Active compounds in our SAR study all contained a —CF3 substituted pyrimidine ring linked to the sulfone group. Replacement of CF3 at the R2 position with groups with less powerful electron-withdrawing properties totally abolished the apoptosis inhibition activity. […] To test the reactivity of representative TC09 compounds, we performed model reactions using different nucleophilic reagent (cysteine, lysine, and glutathione) with compounds 1, 6, and 27. […] To further explore the binding mode of the active compounds in a cellular context, we next performed a cellular wash/no wash assay for determining the reversibility of compound-target interactions. Following compound incubation, one subset of cells was washed several times to eliminate the free test compounds, and the other subset was not washed. Apoptosis was induced and the viability of cells was then measured and EC50 under wash conditions was compared with no wash conditions.[9]
U2OS_Bim cells were plated at a density of 3000 cells per well in 96-well plates. 24 hrs later, duplicate sets of cells were treated with experimental compounds for 3 hrs. One subset of these cells were treated with 0.1 μg/mL DOX to trigger apoptosis. The remaining subset of cells was washed free of the experimental compound using warmed medium, 3 times, before being treated with 0.1 μg/mL DOX. 24 hours after DOX addition, cell viability was determined by measuring the ATP levels using a CellTiter-Glo kit. Cell survival rate was calculated. zVAD (20 μM) was used as a positive control.

Test [3] relates to U2OS_Bim cells. As to the kind of experiment: Immunostaining of cytochrome c (mitochondrial cytochrome c release). The following applies: immunofluorescence after induced Bim overexpression. The method, then: U2OS_Bim cells were plated in Lab-Tek eight-chambered slides (Thermo Scientific). 24 hrs later, cells were treated with experimental compounds for one hour. Cell were washed by PBS for 10 min and fixed with 2% PFA for 30 min at room temperature. Following three additional washes in PBS, cells were incubated in PBS containing 0.1% Triton X-100 for 10 min. Cytochrome c antibody (diluted in 5% BSA in PBST) was incubated with the cells at 4° C. overnight. Cells were then washed three times with PBST and incubated with secondary antibody at room temperature for 1 h. Following three additional washes in PBS, the slides were covered and sealed and then examined with a Zeiss LSM 510 confocal microscope.

Test [4] deals with U2OS_Bim cells. The test is described as follows: Long-term cell survival under constant apoptotic insult (DOX). The method, then: We therefore tested the long-term impact of TC09 compounds on cells experiencing constant apoptotic insult. […] Remarkably, in the presence of tested TC09 compounds, the cells continued to proliferate, similar to cells grown under normal conditions.
The U2OS_Bim cells were all killed when DOX was added, even in the presence of z-VAD-FMK.

Test [5] deals with U2OS_Bim cells. The test is described as follows: TMRM staining (mitochondrial membrane potential). As to conditions: DOX induction of Bim. The method, then: U2OS_Bim cells were plated at a density of 3000 cells per well in 96-well optical plates. 24 hrs later, cells were treated with experimental compounds for one hour. The cells were then treated with 0.1 μg/mL DOX to trigger apoptosis. 4 hrs later, 50 nM TMRM was added to each well and incubated for 30 min. Cells were washed 3 times with warmed PBS buffer and examined with a Zeiss LSM 510 confocal microscope.

The mark [6] stands for this setting: estimated (*Est.) / preliminary results, numbering of Tables 4a/4b, read-out: EC50.
The mark [7] stands for this setting: no wash, 3 hrs compound incubation before DOX, read-out: EC50 (no wash).

Where a SMILES comes first, the peptide text is derived from it. The star is where a group is joined. Cbz = O=C(OCc1ccccc1)*; CH2F = FC*

Here are results for 31 compounds from patent publication US11725000B2, “Apoptosis inhibitors” (National Institute of Biological Sciences, Beijing, priority 2017, dated 2023).

The term EC50 denotes the concentration at which the effect is half-maximal. Regarding `Cc1cc(-c2cc(F)c(=O)n(Cc3ccc4c(c3)OCO4)c2)nc(S(=O)(=O)CCC(OCc2ccccc2F)c2ccc3ncn(C)c3c2)n1` (stereo not drawn) [Compound 393], in the test on U2OS_Bim cells [1] (setting [6]), the EC50 was 1 to 1000 nM. The same measure, in the same setting: then `Cc1cc(-c2cc(F)c(=O)n(Cc3ccc4c(c3)OCO4)c2)nc(S(=O)(=O)CCC(OCc2ccccc2F)c2ccc3ccoc3c2)n1` (stereo not drawn) [Compound 394], with 1 to 1000 nM; and `Cc1cc(-c2cc(F)c(=O)n(Cc3ccc4c(c3)OCO4)c2)nc(S(=O)(=O)CCC(OCc2ccccc2F)c2ccc3ncoc3c2)n1` (stereo not drawn) [Compound 395], with 1 to 1000 nM; and `Cc1cc(-c2cc(F)c(=O)n(Cc3ccc4c(c3)OCO4)c2)nc(S(=O)(=O)CCC(OCc2ccccc2F)c2ccc3ncsc3c2)n1` (stereo not drawn) [Compound 396], with 1 to 1000 nM. Same read-out and setting: in the case of `Cc1cc(-c2cc(F)c(=O)n(Cc3ccc4c(c3)OCO4)c2)nc(S(=O)(=O)CCC(OCc2ccccc2F)C2CCCCC2)n1` (stereo not drawn) [Compound 397] it was 1 to 1000 nM; in that of `Cc1cc(-c2cc(F)c(=O)n(Cc3ccc4c(c3)OCO4)c2)nc(S(=O)(=O)CCC(OCc2ccccc2F)C2CCCCN2C)n1` (stereo not drawn) [Compound 398], 1 to 1000 nM; in that of `Cc1cc(-c2cc(F)c(=O)n(Cc3ccc4c(c3)OCO4)c2)nc(S(=O)(=O)CCC(OCc2ccccc2F)C2CCCOC2)n1` (stereo not drawn) [Compound 399], 1 to 1000 nM. Take `Cc1cc(-c2cc(F)c(=O)n(Cc3ccc4c(c3)OCO4)c2)nc(S(=O)(=O)CCC(OCc2ccccc2F)C(C)(C)C)n1` (stereo not drawn) [Compound 400]: the EC50 with U2OS_Bim cells [1] (setting [6]) is 1 to 1000 nM. `Cc1cc(-c2cc(F)c(=O)n(Cc3ccc4c(c3)OCO4)c2)nc(S(=O)(=O)CCC(OCc2ccncc2)c2ccccc2)n1` (stereo not drawn) [Compound 401]: the EC50 in the test on U2OS_Bim cells [1] (setting [6]) is 1 to 1000 nM. Regarding `Cc1cc(-c2cc(F)c(=O)n(Cc3ccc4c(c3)OCO4)c2)nc(S(=O)(=O)CCC(OCc2ccncc2)c2ccccc2)n1` (stereo not drawn) [Compound 402], the EC50 in the test on U2OS_Bim cells [1] (setting [6]) is 1 to 1000 nM. The same measure, in the same setting: then `Cc1cc(-c2cc(F)c(=O)n(Cc3ccc4c(c3)OCO4)c2)nc(S(=O)(=O)CCC(OCc2cccn2C)c2ccccc2)n1` (stereo not drawn) [Compound 403], with 1 to 1000 nM; and `Cc1cc(-c2cc(F)c(=O)n(Cc3ccc4c(c3)OCO4)c2)nc(S(=O)(=O)CCC(OCc2cncn2C)c2ccccc2)n1` (stereo not drawn) [Compound 404], with 1 to 1000 nM; and `Cc1cc(-c2cc(F)c(=O)n(Cc3ccc4c(c3)OCO4)c2)nc(S(=O)(=O)CCC(OCc2cccs2)c2ccccc2)n1` (stereo not drawn) [Compound 405], with 1 to 1000 nM. The same measure, in the same setting: then `Cc1cc(-c2cc(F)c(=O)n(Cc3ccc4c(c3)OCO4)c2)nc(S(=O)(=O)CCC(OCc2cncs2)c2ccccc2)n1` (stereo not drawn) [Compound 406], with 1 to 1000 nM; and `Cc1cc(-c2cc(F)c(=O)n(Cc3ccc4c(c3)OCO4)c2)nc(S(=O)(=O)CCC(OCc2ccco2)c2ccccc2)n1` (stereo not drawn) [Compound 407], with 1 to 1000 nM; and `Cc1cc(-c2cc(F)c(=O)n(Cc3ccc4c(c3)OCO4)c2)nc(S(=O)(=O)CCC(OCc2cnco2)c2ccccc2)n1` (stereo not drawn) [Compound 408], with 1 to 1000 nM. Same read-out and setting: then `Cc1cc(-c2cc(F)c(=O)n(Cc3ccc4c(c3)OCO4)c2)nc(S(=O)(=O)CCC(OCC2CCCCC2)c2ccccc2)n1` (stereo not drawn) [Compound 409], with 1 to 1000 nM; and `Cc1cc(-c2cc(F)c(=O)n(Cc3ccc4c(c3)OCO4)c2)nc(S(=O)(=O)CCC(OCC2CCOCC2)c2ccccc2)n1` (stereo not drawn) [Compound 410], with 1 to 1000 nM; and `Cc1cc(-c2cc(F)c(=O)n(Cc3ccc4c(c3)OCO4)c2)nc(S(=O)(=O)CCC(OCC2CCN(C)CC2)c2ccccc2)n1` (stereo not drawn) [Compound 411], with 1 to 1000 nM. On to `Cc1cc(-c2cc(F)c(=O)n(Cc3ccc4c(c3)OCO4)c2)nc(S(=O)(=O)CCC(OCC2CCCC2)c2ccccc2)n1` (stereo not drawn) [Compound 412], for which the EC50 in the test with U2OS_Bim cells [1] (setting [6]) is 1 to 1000 nM. Take `Cc1cc(-c2cc(F)c(=O)n(Cc3ccc4c(c3)OCO4)c2)nc(S(=O)(=O)CCC(OCC2CCNC2)c2ccccc2)n1` (stereo not drawn) [Compound 413]: the EC50 with U2OS_Bim cells [1] (setting [6]) was 1 to 1000 nM. For `Cc1cc(-c2cc(F)c(=O)n(Cc3ccc4c(c3)OCO4)c2)nc(S(=O)(=O)CCC(OCC2CCOC2)c2ccccc2)n1` (stereo not drawn) [Compound 414], the half-maximal effective concentration (EC50) in the test with U2OS_Bim cells [1] (setting [6]) was 1 to 1000 nM. Still for that read-out and setting: in the case of `Cc1cc(-c2cc(F)c(=O)n(Cc3ccc4c(c3)OCO4)c2)nc(S(=O)(=O)CCC(OCC2CCC2)c2ccccc2)n1` (stereo not drawn) [Compound 415] it was 1 to 1000 nM. Same read-out and setting: then `Cc1cc(-c2cc(F)c(=O)n(Cc3ccc4c(c3)OCO4)c2)nc(S(=O)(=O)CCC(OCC2CN(C)C2)c2ccccc2)n1` (stereo not drawn) [Compound 416], with 1 to 1000 nM; and `Cc1cc(-c2cc(F)c(=O)n(Cc3ccc4c(c3)OCO4)c2)nc(S(=O)(=O)CCC(OCC2COC2)c2ccccc2)n1` (stereo not drawn) [Compound 417], with 1 to 1000 nM.

As for `Cc1cc(-c2cc(F)c(=O)n(Cc3ccc4c(c3)OCO4)c2)nc(S(=O)(=O)CCC(OCC2CC2)c2ccccc2)n1` (stereo not drawn) [Compound 418], in the test with U2OS_Bim cells [1] (setting [6]), the EC50 is 1 to 1000 nM. Same read-out and setting: in the case of `Cc1cc(-c2cc(F)c(=O)n(Cc3ccc4c(c3)OCO4)c2)nc(S(=O)(=O)CCC(OCC2CO2)c2ccccc2)n1` (stereo not drawn) [Compound 419] it was 1 to 1000 nM; in that of `Cc1cc(-c2cc(F)c(=O)n(Cc3ccc4c(c3)OCO4)c2)nc(S(=O)(=O)CCC(OCC2CN2C)c2ccccc2)n1` (stereo not drawn) [Compound 420], 1 to 1000 nM.

With `Cc1cc(-c2cc(F)c(=O)n(Cc3ccc4c(c3)OCO4)c2)nc(S(=O)(=O)CCC(OCC(C)(C)C)c2ccccc2)n1` (stereo not drawn) [Compound 421], the EC50 with U2OS_Bim cells [1] (setting [6]) was 1 to 1000 nM.

In the case of `Cc1ccc(O)c(NC(=O)CCCS(=O)(=O)c2nc(-c3cccs3)cc(C(F)(F)F)n2)c1` [Hit], the EC50 in the test on U2OS_Bim cells [2] (cells washed free of compound 3 times before DOX, read-out: EC50 (wash assay)) is 3900 nM; with U2OS_Bim cells [2] (setting [7]) it was 4010 nM; in the test on U2OS_Bim cells [1] (DOX-induced Bim overexpression, viability 24 h after DOX, read-out: EC50), 4010 nM; in the test on U2OS_Bim cells [1] (means of duplicates, numbering of Tables 4a/4b, read-out: EC50) it was 1000 to 10000 nM; with U2OS_Bim cells [1] (read-out: EC50 in increasing cell survival rates following apoptosis induced by Bim overexpression), 4000 nM. In addition, the “mitochondrial cytochrome c release” value with U2OS_Bim cells [3] is on record as “could prevent cytochrome c release”.

`COC(=O)C[C@H](NC(=O)[C@H](C)NC(=O)[C@@H](NC(=O)OCc1ccccc1)C(C)C)C(=O)CF` [zVAD] (Cbz-Val-Ala-Asp(OMe)-CH2F): the “cell colonies after 1 week culture with DOX (crystal violet)” value in the test with U2OS_Bim cells [4] (1 week) was “all killed”. The “cell survival/proliferation over days after addition of DOX” value with U2OS_Bim cells [4] (constant apoptotic insult, up to third day) is recorded as “clearly delayed death, most of the cells had died by the third day”. In the test on U2OS_Bim cells [2] (setting [7]), the EC50 is 69200 nM. Moreover, in the test with U2OS_Bim cells [5], the “mitochondria membrane potential and TMRM enrichment after apoptosis induction” value is reported as “cannot be achieved”.
